pIC50: −log10 of the molar value. Several values for one entry are separate records, joined by “and”; a condition that tells them apart may be missing. Equal entries are not always repeated. Where two headings read alike, the source gives them in different places.
Key:
TbPDE2B = TbPDE2B (Trypanosoma brucei, UniProt Q9GQU6); assay: Phosphodiesterase assay, recombinant TbPDE2B expressed in HEK 293 cells; assay type: biochemical; settings: for inhibition of recombinant TbPDE2B, in words: 1 μM [3H] cAMP, cGMP up to 200 μM
Chain of TbPDE2B (Q9GQU6 entry or part of it): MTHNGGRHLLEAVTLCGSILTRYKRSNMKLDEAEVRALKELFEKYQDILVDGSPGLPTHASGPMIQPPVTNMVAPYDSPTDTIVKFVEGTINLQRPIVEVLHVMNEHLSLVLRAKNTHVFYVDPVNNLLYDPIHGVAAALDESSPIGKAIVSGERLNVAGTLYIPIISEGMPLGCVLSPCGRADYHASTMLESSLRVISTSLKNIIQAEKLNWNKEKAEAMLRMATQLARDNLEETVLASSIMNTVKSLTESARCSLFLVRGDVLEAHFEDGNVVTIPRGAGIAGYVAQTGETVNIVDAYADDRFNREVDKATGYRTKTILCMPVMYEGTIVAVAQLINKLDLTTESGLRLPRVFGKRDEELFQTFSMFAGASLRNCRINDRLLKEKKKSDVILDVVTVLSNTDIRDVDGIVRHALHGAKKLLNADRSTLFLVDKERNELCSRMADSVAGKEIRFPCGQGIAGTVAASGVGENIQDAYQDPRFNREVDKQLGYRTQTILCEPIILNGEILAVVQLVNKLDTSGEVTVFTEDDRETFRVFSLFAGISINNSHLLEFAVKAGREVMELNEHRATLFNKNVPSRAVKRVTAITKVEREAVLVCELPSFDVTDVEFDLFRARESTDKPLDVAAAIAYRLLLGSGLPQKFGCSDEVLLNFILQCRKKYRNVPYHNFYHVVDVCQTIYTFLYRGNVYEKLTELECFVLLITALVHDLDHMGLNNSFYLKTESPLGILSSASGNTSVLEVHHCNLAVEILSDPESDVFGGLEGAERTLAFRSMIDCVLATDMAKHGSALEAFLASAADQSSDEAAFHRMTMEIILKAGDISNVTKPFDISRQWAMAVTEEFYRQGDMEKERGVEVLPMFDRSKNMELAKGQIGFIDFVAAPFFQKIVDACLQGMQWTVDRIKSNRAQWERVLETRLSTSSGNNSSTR
Protocol: Expression of T. brucei PDE. The ORF sequence for T. brucei PDE was subcloned into the pcDNA 3.1-TOPO vector (Invitrogen) according to the manual (Eukaryotic TOPO TA Cloning, version C) and plasmid DNA purified as described above. Human embryonic kidney 293 (HEK 293) cells were transfected with 12 μg of DNA in 60 μl of GenePORTER Transfection Reagent (Gene Therapy Systems, San Diego, Calif.) in 100-mm dishes and kept at 37° C. in 5% CO2 for 24 h. After this period fresh medium was added, and incubated under the same conditions for an additional 24 h. The same amount of pcDNA vector containing the sequence for the Green Fluorescent Protein (GFP) was transfected under identical conditions as a positive control for expression and as a negative control for PDE activity. Two plates were harvested at a time and homogenized with 1 ml of homogenization buffer containing 40 mM Tris-HCl, pH 7.5; 15 mM benzamidine; 15 mM 2-mercaptoethanol; 1 μg/ml pepstatin A; 1 μg/ml leupeptin and 5 mM EDTA. The cell suspension was immediately subjected to sonication (3×5 s) on ice. One volume of glycerol and 1 mg/ml of bovine serum albumin were added immediately to the homogenate.
Phosphodiesterase assay. […]

TbPDE2A [1] = biological target: T1, TbPDE2A (Trypanosoma brucei, UniProt Q9GTN9); assay: Phosphodiesterase assay, recombinant TbPDE2A in yeast lysates; assay type: biochemical
T1 sequence (Q9GTN9 entry or part of it): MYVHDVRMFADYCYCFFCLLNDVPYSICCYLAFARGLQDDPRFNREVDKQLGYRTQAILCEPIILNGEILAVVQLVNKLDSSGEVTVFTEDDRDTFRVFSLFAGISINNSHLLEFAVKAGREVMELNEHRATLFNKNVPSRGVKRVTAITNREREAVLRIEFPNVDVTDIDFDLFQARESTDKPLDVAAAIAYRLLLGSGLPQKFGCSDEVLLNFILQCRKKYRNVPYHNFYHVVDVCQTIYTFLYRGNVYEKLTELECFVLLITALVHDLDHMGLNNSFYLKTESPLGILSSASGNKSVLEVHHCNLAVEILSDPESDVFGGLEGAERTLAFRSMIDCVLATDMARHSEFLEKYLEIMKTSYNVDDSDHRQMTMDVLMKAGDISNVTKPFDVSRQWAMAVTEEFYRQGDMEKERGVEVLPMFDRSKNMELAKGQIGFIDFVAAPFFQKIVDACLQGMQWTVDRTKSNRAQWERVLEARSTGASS
Protocol: Yeast cell lysis. Yeast cells grown to mid- to end-log phase in SC-leu medium were collected, resuspended quickly in an original volume of prewarmed YPD medium and incubated for an additional 3 h at 30° C. in order to maximize protein expression. Cells were then harvested, washed once in water and once in HBBB buffer (Hank's balanced salt solution, containing 50 mM HEPES, pH 7.5). The washed cell pellet was suspended in an equal volume of HBB containing a protease inhibitor cocktail (Complete™, Roche Molecular Biochemicals). […] The cell lysate was clarified by centrifugation for 15 min at 15,000×g.
Phosphodiesterase Assay. […] […] Incubation was at 30° C. for 20 min. […] The precipitates were filtered through GF-C glass fiber fitters and filters were washed 3 times with ice-cold 1 mM NaOH/100 mM NaCl and were then dried and counted in liquid scintillation fluid (4 g/I omnifluor in toluene). All assays were carried out in triplicates and with three independent enzyme preparations. Controls for the efficiency of precipitation of cAMP and of AMP were always included. When assaying yeast cell extracts, control lysates from the PDE deletion strains transfected with empty vector was used as a background control. […] Inhibitors were dissolved in DMSO or ethanol, and the final concentration of the solvent never exceeded 1% in the assays reaction. Incubation times and enzyme concentrations were always adjusted so that less than 30% of the input substrate was hydrolyzed (2-5 μg total protein/100 μl assay). IC50 values were calculated by curve fitting on a four parameter dose-response model with variable slope, using the Prism software package of Graph Pad Inc., San Diego, Calif.

[2] = test system: total PDE activity of trypanosomal cell extracts; assay: Total PDE activity in trypanosomal cell extracts; assay type: biochemical, Trypanosoma brucei
Description: Chemical validation of the TbPDE2 family as a potential drug target. One of the novel PDEs of the invention, TbPDE2A, was expressed as a recombinant protein and was characterized in detail (see above). […].

PDE 6 = settings: read-out: PDE Selectivity (IC50); cited from earlier work
PDE 8 = settings: read-out: PDE Selectivity (IC50); cited from earlier work
PDE 10 = settings: read-out: PDE Selectivity (IC50); cited from earlier work
PDE 3 = settings: read-out: PDE Selectivity (IC50); cited from earlier work
[3] = test system: PDE8A and PDE7A from hut78 cells; assay: PDE activity of monoQ HPLC fractions of hut78 cells, low Km peak; assay type: biochemical, human; settings: 0.01 μM cAMP; 10 μM rolipram or 100 μM IBMX
Protocol: (§1) Since pure CD4^+ T cells can only be obtained in limited quantities, a human CD4^+ T cell line, hut78, (ATCC, Manassas, Va.), was used to study the activity of PDE8A. Hut78 cells (2×10^8) were resuspended in 20 mM Tris pH 7.5 buffer containing protease inhibitors (Boehringer Mannheim, Indianapolis, Ind.) and sonicated. The supernatant was removed after centrifugation at 15000×g for 10 minutes and applied to a Mono Q column attached to a Rainin Dynamax HPLC system (Ameryville, Calif.). A NaCl gradient (0-0.8M) was passed through the column and 250 uL fractions were collected. The fractions were assayed for activity using either 1 μM or 0.01 μM cAMP as substrate and the indicated concentration of inhibitor (FIG. 5). Western blot analysis was also performed (10 μL/well) using PDE7A or 8A antibodies.

PDE8A [4] = assay: PDE activity of monoQ HPLC fractions of hut78 cells containing only PDE8A; assay type: biochemical, human; settings: 0.01 μM cAMP
Protocol: as §1

PDE8A [5] = assay: Activity of immunoprecipitated PDE8A from Hut78 or CD4+ cells; assay type: biochemical, human
Protocol: Hut78 or CD4^+ cells were harvested at various points after stimulation with CD3 and CD28 antibodies. Cells were resuspended in IP buffer (20 mM Tris pH7.5, 100 mM NaCl, 1 mM benzamidine, 1 μg/mL leupeptin, 1 μg/mL pepstatin, 50 mM NaF, 2 mM EDTA) and sonicated. The cells were centrifuged at 15000×g for 10 minutes. The supernatant was precleared for 2 hours with 0.5 μg mouse IgG and 10 μL protein-G agarose (Santa Cruz Biotechnology, Santa Cruz, Calif.). PDE8A monoclonal antibody was preloaded onto 10 μL protein G-agarose and added to the precleared supernatant. The immunoprecipitations were agitated overnight at 4° C. and the beads washed three times with IP buffer containing 1M NaCl followed by one wash with IP buffer.

PDE8A [6] = settings: Fisher et al. 1998; cited from earlier work
PDEs (Non-selective) = settings: read-out: PDE Selectivity (IC50); cited from earlier work
human PDE8A [7] = biological target: T2, human PDE8A (Homo sapiens, UniProt O60658); assay: Activity of sf9 expressed PDE8A, undigested or trypsin digested; assay type: biochemical; design: made in house; host or cells: Sf9 insect cells (supernatant of cell extract); settings: undigested PDE8A
Protocol: (§2) Briefly, human PDE8A was expressed in Sf9 cells (ATCC, Manassas, Va.). […] The supernatant (10^6 cells/digestion) was isolated and digested with the indicated amounts of trypsin at the indicated times at 30° C. The digestion was stopped with a 100-fold excess of soybean trypsin inhibitor. The activity was assayed with 1 μM cAMP. […] The digested PDE8A was analyzed by Western blot analysis using a peptide antibody specific to the C-terminus (PIL13) or the P4G7 monoclonal antibody.
Target sequence in this assay (O60658 285-829): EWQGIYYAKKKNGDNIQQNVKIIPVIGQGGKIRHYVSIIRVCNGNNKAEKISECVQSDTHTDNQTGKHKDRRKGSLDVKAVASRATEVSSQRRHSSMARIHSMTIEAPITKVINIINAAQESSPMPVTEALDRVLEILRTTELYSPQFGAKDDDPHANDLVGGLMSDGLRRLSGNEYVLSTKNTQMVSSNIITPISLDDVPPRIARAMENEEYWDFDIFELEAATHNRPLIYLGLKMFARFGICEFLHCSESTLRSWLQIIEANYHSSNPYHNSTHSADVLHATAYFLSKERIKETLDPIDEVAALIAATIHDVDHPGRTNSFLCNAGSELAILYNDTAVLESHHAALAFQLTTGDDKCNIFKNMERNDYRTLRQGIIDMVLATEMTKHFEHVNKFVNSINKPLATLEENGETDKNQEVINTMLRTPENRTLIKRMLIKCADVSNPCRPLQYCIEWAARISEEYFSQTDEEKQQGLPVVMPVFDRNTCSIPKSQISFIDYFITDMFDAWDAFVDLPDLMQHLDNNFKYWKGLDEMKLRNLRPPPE

human PDE8A [8] = biological target: T2, human PDE8A; assay: as above; assay type: biochemical; design: human PDE8A was expressed in Sf9 cells (ATCC, Manassas, Va.); This PDE8A was already N-terminally truncated at position 285; fused on or other part: N-terminal FLAG tag ([…]...) on the undigested construct; settings: trypsin digested PDE8A; at 1 μM IBMX
Protocol: as §2
Target sequence in this assay (O60658 whole entry): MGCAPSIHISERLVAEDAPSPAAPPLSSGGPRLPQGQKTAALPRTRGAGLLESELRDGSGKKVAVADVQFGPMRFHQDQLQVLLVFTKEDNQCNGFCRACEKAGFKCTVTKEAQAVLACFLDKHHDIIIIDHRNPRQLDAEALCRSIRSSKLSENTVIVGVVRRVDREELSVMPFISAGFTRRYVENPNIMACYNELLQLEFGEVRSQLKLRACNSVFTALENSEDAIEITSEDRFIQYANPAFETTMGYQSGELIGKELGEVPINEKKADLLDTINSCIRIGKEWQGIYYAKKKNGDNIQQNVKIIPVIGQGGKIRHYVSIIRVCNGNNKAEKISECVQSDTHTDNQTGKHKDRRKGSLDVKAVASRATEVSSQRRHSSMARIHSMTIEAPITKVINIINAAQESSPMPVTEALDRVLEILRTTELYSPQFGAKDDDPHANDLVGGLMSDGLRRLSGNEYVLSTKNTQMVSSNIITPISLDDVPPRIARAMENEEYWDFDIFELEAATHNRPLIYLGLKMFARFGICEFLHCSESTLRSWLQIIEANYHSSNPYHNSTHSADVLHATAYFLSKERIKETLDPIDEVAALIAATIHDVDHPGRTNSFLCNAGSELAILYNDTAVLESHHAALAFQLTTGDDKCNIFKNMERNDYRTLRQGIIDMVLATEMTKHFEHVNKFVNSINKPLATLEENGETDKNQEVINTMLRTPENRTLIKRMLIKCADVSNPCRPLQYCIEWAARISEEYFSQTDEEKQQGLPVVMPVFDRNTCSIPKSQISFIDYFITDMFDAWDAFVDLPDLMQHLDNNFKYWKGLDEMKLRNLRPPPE

TbPDE2C = assay: Recombinant TbPDE2C expressed in S. cerevisiae; assay type: biochemical, Trypanosoma brucei
Description: We also have expressed a second family member, TbPDE2C, as a recombinant protein in the yeast S. cerevisiae and have characterized it was previously done for TbPDE2A.

TbPDE2A [9] = biological target: T1, TbPDE2A; settings: Table 2, from reference; cited from earlier work
[10] = full-size TbPDE2A, yeast lysates, 1 μM cAMP

OCCN(CCO)c1nc(N2CCCCC2)c2nc(N(CCO)CCO)nc(N3CCCCC3)c2n1 [Dipyridamole, dipyridamole]
pIC50 (TbPDE2B): 4.57
pIC50 (TbPDE2A [1]; [10]): 5.24 and 5.23
IC50 for TbPDE2A (μM) (TbPDE2A [1]; [10]): low micromolar range
total PDE activity [2]: marked, if not complete, reduction
pIC50 (PDE 6): 6.42
pIC50 (PDE 8): 5.35
pIC50 (PDE 10): 5.96

CSc1ccc(C(=O)c2[nH]c(=O)[nH]c2C)cc1 [Enoximone, enoximone]
pIC50 (TbPDE2B): < 4.00
inhibition of recombinant TbPDE2B, in words (TbPDE2B): No IC50 could be obtained
pIC50 (PDE 3): 6.00

CC(C)Cn1c(=O)n(C)c(=O)c2[nH]cnc21 [IBMX, 3-Isobutyl-1-methylxanthine]
sensitivity of the PDE activity peak [3]: sensitive
activity of fractions that contained only PDE8A (PDE8A [4]): inhibited
immunoprecipitated PDE8A activity from hut78 cells (PDE8A [5]; 100 μM IBMX, FIG. 6A): inhibited
increase in immunoprecipitated PDE8A activity after activation (PDE8A [5]; CD4+ T cells): could be inhibited
pIC50 (TbPDE2B): < 3.00
inhibition of recombinant TbPDE2B, in words (TbPDE2B): extremely low sensitivity
effectiveness on TbPDE2A, in words (TbPDE2A [1]): not effective
effect on TbPDE2A activity in initial screening (TbPDE2A [1]; 100 μM inhibitor, 1 μM cAMP, FIG. 26): ineffective
pIC50 (TbPDE2A [1]; [10]): 3.26
sensitivity of recombinant expressed PDE8A (PDE8A [6]): resistant
pIC50 (PDEs (Non-selective)): 4.30 to 5.70
IBMX inhibition of undigested PDE8A (human PDE8A [7]): resistant
activity of undigested PDE8A (human PDE8A [7]; at 1 μM IBMX): unchanged
activity retained (human PDE8A [8]): 40%

Nc1nc2c(ncn2[C@@H]2O[C@@H]3COP(=O)(O)O[C@H]3[C@H]2O)c(=O)[nH]1 [cGMP]
inhibition of recombinant TbPDE2B, in words (TbPDE2B): not stimulated or inhibited
IC50 (TbPDE2B; Substrate concentration 1 μM [3H]-cAMP, read-out: TbPDE2B IC50 (μM) (n = 3)): > 200 µM
cAMP hydrolysis by TbPDE2A in the presence of cGMP (TbPDE2A [1]; 100-fold excess of cGMP, full-size and truncated constructs): unaffected
effect on activity of TbPDE2C (TbPDE2C): does not affect the activity
pIC50 (TbPDE2A [9]): < 4.00

From patent US7598067B2, “PDEs and uses thereof” (priority 2000, dated 2009)
